Experimental data taken from patent publication US8673585B2, “Biochemical serum marker” (Biouniversa S.r.l., priority 2009, dated 2014).

Legend:
J774 cells [1] = test: Binding of FITC-conjugated recombinant BAG3 to the cell surface (confocal microscopy); format: cell-based, murine; conditions: FITC-conjugated protein added to the culture medium for 1 hour
Procedure: The BAG3 recombinant protein was then conjugated to FITC using the FluoroTag FITC Conjugation Kit (Sigma). Equal amounts of BSA-FITC (negative control) and rBAG3-FITC were added to the culture medium for 1 hour. Cells were then fixed with a solution of 3.7% formaldehyde and analyzed by a Zeiss LSM confocal microscope.
Binding of the BAG3 protein to the surface of J774 cells was confirmed by use of the recombinant protein conjugated with a fluorophore. BAG3 binding is specific because it is not observed when other proteins, for example BSA, are used instead of BAG3.

J774 cells [2] = test: Macrophage activation assay: production of nitrites in the culture medium (Griess reagent); format: cell-based, murine
Procedure: The recombinant BAG3 protein was used for macrophage activation assays, in order to determine the possible role on blood cells of the protein released in the serum. For this purpose, the murine monocyte J774 cell line was treated with different concentrations of the recombinant BAG3 protein, using a pro-inflammatory agent such as lipopolysaccharide (LPS) as a positive control. J774 cells were plated at 60% confluence and incubated for 24 h with the recombinant BAG3 protein at concentrations of 250, 500 ng/ml and 1 mg/ml, alone or in combination with LPS at a concentration of 10 ng/ml.
Moreover the production of nitrites in the culture medium, which correlates with monocyte activation, was verified with the Griess reagent (1% sulfanilamide, 0.1% naftilethylenediamine, 5% phosphoric acid) and measured in a Beckman DU-62 spectrophotometer at 550 nM (FIG. 9b).

Row | Substance | binding to the surface of J774 cells (J774 cells [1]) | production of nitrites compared to the control (untreated cells) (J774 cells [2]; 24 h, 500 ng/ml, p<0.001, FIG. 9b) | dose dependence of activity (iNOS expression and nitrites) (J774 cells [2]; 24 h, 250, 500 ng/ml and 1 mg/ml, FIGS. 9a and b)
1 | bovine serum albumin [BSA, reference compound] | not observed | – | –
2 | recombinant BAG3 protein: Recombinant human BAG3 protein expressed in E. coli, His-tagged, purified by affinity chromatography; FITC-conjugated for the binding test | confirmed | increased three-fold | dose-dependent
